In patent US12528840B2, “Transcription active complex targeting cancer drug from viral protein sequence” (The Regents of the University of California, priority 2020, dated 2026):

Tests used:
BCBL-1 PEL cells = experiment: Cytokines in ascites of BCBL-1 PEL xenograft mice (Olink inflammatory panel); assay type: in vivo
Description: Also, the effect of peptide on cytokine production by BCBL-1 PEL cells in xenograft mouse model was studied. Acsite was collected from NRG mice baring BCBL-1 PELs, which were either treated with wild type MBK50 (Wt) peptide (n=3), control Mut peptide (n=3) or left untreated (n=3) for 20 days. The levels of cytokines in the ascites were measured by Olink technology using inflammatory panel that can detect 92 inflammatory proteins. Data was analyzed with Olink Insights Stat analysis software. […] Thus, inflammatory protein expression profile of Wt peptide is distinct from the profile of other groups. […] On the right panel in (FIG. 12c), 15 cytokine expression levels expressed in NPX units, Olink's arbitrary unit, on log 2 scale were compared between untreated, mutant peptide and Wt peptide-treated groups.

BCBL-1 PEL cell line = experiment: PEL xenograft study in NRG mice
Excerpt: We mapped the responsible domain and molecular mechanisms with biochemical and genetic approaches (FIG. 1).
Based on cell killing efficacies of the peptide in vitro, we select two peptides and examine the efficacies to inhibit tumor growth in xenograft models. We use a PEL cell xenograft models. […] Standardized PK/PD studies are completed in rat models at the UCD comprehensive cancer center PK/PD core facility.
Amino acid sequence alignment identified homologous protein sequences in other gamma-herpesvirus protein sequence (The Top table in FIG. 8a, also shown in FIG. 2). Based on their alignment, “non-natural” protein sequences were generated by substituting specific amino acids (The peptides are: Wt d1-1, DS 3-1, DE 3-1, and Mut d1-1 (control peptide) from the top to the bottom in the Bottom Table in FIG. 8a). Those four peptides were used in MTT assays in FIG. 8b to examine the effects on cell growth of BCBL-1 […] effusion lymphoma (PEL) cell line. Also tested are three D-amino acid substitutions first two amino acids and c-terminal amino acid (ST d3-1), in comparison with one D-amino acid peptide (N-terminus) (Wt d3-1).

B cells = experiment: B cell expansion in U-bottom plate upon sCD40L or ODN 2006 stimulation; assay type: cell-based; details: 32 μM
Description: B cells were prepared by magnetic beads from healthy donor PBMC (n=2). Representative pictures of B cell culture in a 96 well U-bottom plate in the presence of sCD40L (T cell dependent stimulation) or ODN 2006 (TLR9 ligand)(T cell independent stimulation) at indicated concentration without or with MBK50 (16, 32 μM) or mutant peptide (32 μM). The radius of cell volume in each well roughly correlate to the total cell numbers.

SWI/SNF components = experiment: ELISA-based binding assay with purified SWI/SNF components; details: biotin-conjugated peptide, HRP-streptavidin detection
Excerpt: FIG. 17(a) SDS-PAGE analysis of five SWI/SNF components individually prepared from baculovirus infected Sf9 cells. FIG. 17(b) A schematic illustration of ELISA assay to evaluate VGN50 and SWI/SNF interaction. FIG. 17(c) Analysis of VGN50 binding to SWI/SNF components by ELISA. Peptide binding measured as OD values at 450 nm are shown. Mean OD values were compared between the VGN50 and Mut-P in each concentration using unpaired t-test. **p<0.01, *p<0.05, NS: no significance. Data are presented as mean±SD.
To confirm the basis of VGN50 (a.k.a. MBK50) mechanism of action, the biochemical interaction between VGN50 and SWI/SNF proteins (i.e., VGN50 target molecules), were examined by ELISA-based binding assays using purified 5 individual SWI/SNF components prepared from baculovirus-infected Sf9 cells (FIG. 17a). Increasing concentrations of biotin-conjugated VGN50 or Mut-P were incubated in an ELISA plate coated with each SWI/SNF component, and the bound peptides were detected by HRP-streptavidin (FIG. 17b).

NU-DUL1 cell = experiment: Cell growth inhibition with deletion peptides; assay type: cell-based
Excerpt: FIG. 7. Cell growth inhibition with deletion peptides identified key amino acid residue.
BCL2 mutations are frequently seen in B-cell lymphoma and the cell types are often refractory to chemotherapy due to anti-apoptotic phenotype. […] In addition, Essential Leucine residue is identified with the deletion peptides.

BC-1 cells = experiment: SLAM-seq, active transcription of cellular genes; assay type: cell-based; details: 24 μM, 30 min then 4sU 1 hour, BC-1 (FIG. 9: BCBL-1 and BC1)
Description: FIG. 9. Profiling Peptide targets with Thiol(SH)-linked alkylation for the metabolic sequencing of RNA (SLAM seq). Differences in active transcription in presence of peptide drug was examined. […] Total RNA-sequence performed 24 hours after drug incubation.
Thiol(SH)-linked alkylation for the metabolic sequencing of RNA (SLAM seq), an orthogonal-chemistry-based RNA sequencing technology detects 4-thiouridine (s4U) incorporation in RNA species at single-nucleotide resolution. Using SLAM-seq method, BC-1 cells were incubated with peptide drug and peptide with three amino acid substitute to alanine was used as a control peptide. Peptide drug was incubated in BC-1 cell culture (24 μM) and after 30 min drug incubation, 4sU (300 μM in final concentration) was added into culture media for 1 hour. Total RNA was isolated in the end of 1 hour 4sU incubation and alkylated RNA samples were subjected to SLAM-seq. Samples were duplicated and changed gene expression vs mock-treated cells (P<0.05) was marked in red. […] IGV viewer was used to visualize sequence reads at MYC region (Chr. 8). […] Log 2 fold changes and adjusted P-value of MYC down regulation in both BCBL-1 and BC-1 cells are depicted in underneath of panel.

Sequence: LSSILQGLYQLDT [MBK50]
- decrease of CXCL10 (BCBL-1 PEL cells): ~200 fold
- decrease of VEGFA (BCBL-1 PEL cells): ~4 fold
- expression change of the majority of the 15 cytokines (BCBL-1 PEL cells): about 2 fold
- PC analysis of 92 inflammatory protein expression profiles (BCBL-1 PEL cells; 20 days treatment): away from the cluster
- number of cytokines significantly up- or down-regulated among 92 (BCBL-1 PEL cells; p<0.05): 15
- efficacy to target PEL in xenograft (BCBL-1 PEL cell line): demonstrated efficacies
- toxicity to the host mice (BCBL-1 PEL cell line; xenograft studies): without any measurable toxicities
- cell volume in well (correlates to total cell numbers) (B cells; donor #46): significantly reduced
- cell volume in well (correlates to total cell numbers) (B cells; donor #47): less so
- lowest concentration at which peptide bound the 5 SWI/SNF components (SWI/SNF components): 50 nM
- activity on BCL2 negative lymphoma cell lines (NU-DUL1 cell): still works
- cellular gene expression (active transcription) (BC-1 cells; listed as Wt-peptide): inhibited multiple cellular gene expression
- cellular gene expression (active transcription) (BC-1 cells; listed as peptide drug): strongly inhibited active transcription
